# Results from article PMC8301776, “New Hybrid Compounds Combining Fragments of Usnic Acid and Monoterpenoids for Effective Tyrosyl-DNA Phosphodiesterase 1 Inhibition” (Biomolecules, 2021).
# Entries after “also recorded” stand apart in the source; their conditions may differ. Where two headings read alike, the source gives them in different places.
# Tests used:
# TDP1 = target: T1, TDP1 (Homo sapiens, UniProt Q9NUW8); experiment: Real-time fluorescence detection of TDP1 activity (FAM/BHQ1 oligonucleotide biosensor); type: biochemical
# T1 construct: made in house; host or cells: E. coli
# T1 sequence (Q9NUW8 whole entry): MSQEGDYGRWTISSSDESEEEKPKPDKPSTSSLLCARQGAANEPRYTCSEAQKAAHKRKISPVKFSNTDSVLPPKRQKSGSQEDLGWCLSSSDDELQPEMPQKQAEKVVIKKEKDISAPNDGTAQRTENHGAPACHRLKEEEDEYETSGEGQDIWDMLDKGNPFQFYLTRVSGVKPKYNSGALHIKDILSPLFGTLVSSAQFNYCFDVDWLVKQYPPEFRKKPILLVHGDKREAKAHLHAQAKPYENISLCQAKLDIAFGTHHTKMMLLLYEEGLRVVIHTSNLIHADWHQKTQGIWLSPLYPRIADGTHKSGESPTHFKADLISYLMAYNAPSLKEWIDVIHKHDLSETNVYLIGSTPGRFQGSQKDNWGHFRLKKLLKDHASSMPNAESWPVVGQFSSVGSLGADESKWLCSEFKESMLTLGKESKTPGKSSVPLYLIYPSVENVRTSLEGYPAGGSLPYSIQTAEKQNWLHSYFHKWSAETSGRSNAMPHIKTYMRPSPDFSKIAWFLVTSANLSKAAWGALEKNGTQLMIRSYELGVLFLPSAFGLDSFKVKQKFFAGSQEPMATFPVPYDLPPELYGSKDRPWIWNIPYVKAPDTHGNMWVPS
# HEK293A cells = experiment: Intrinsic cytotoxicity, EZ4U colorimetric test, HEK293A; type: cell-based, human; conditions: Figure 6
# Experimental: (§1) Cytotoxicity of the compounds was examined against human cell lines HEK293A (human embryonic kidney)—WT and TDP1-deficient (Tdp1-/-), and HeLa (cervical cancer) using an EZ4U colorimetric tests (Biomedica, Vienna, Austria) or xCELLigence DP Real-Time Cell Analyzer (ACEA Biosciences, Santa Clara, CA, USA). Cell lines were obtained from the Russian Cell Culture Collection (RCCC) Institute of Cytology RAS (St. Petersburg, Russia). The cells were grown in DMEM/F12 medium (Thermo Fisher Scientific, Waltham, MA, USA), with 1× GlutaMAX (Thermo Fisher Scientific, Waltham, MA, USA), 50 IU/mL penicillin, and 50 μg/mL streptomycin (Thermo Fisher Scientific, Waltham, MA, USA), and in the presence of 10% fetal bovine serum (Biolot, Saint-Petersburg, Russia) in 5% CO2 atmosphere. Control cells were grown in the presence of 1% DMSO where indicated. After formation of a 30–50% monolayer, tested compounds were added to the medium, and the cell culture was monitored for 3 days. […] The measurements were carried out in three parallel experiments.
# (§2) The intrinsic cytotoxicity of the four lead compounds (11a–d) was examined using a colorimetric test (Figure 6).
# HeLa cells [1] = experiment: Intrinsic cytotoxicity, EZ4U colorimetric test, HeLa; type: cell-based, human; conditions: Figure 6
# Experimental: as §1, §2
# HeLa cells [2] = experiment: Topotecan cytotoxicity in combination with TDP1 inhibitors, colorimetric test, HeLa; type: cell-based, human
# Experimental: as §1
# The combination index (CI) values were determined for different concentrations of Tpc and the enamines 11a–d at 2 and 5 μM. […] The CI values were calculated with the CompuSyn version 1.0 software. The CI plot at different fraction-affected (Fa) was determined for Tpc (0.3, 0.5, 1, 2, and 4 μM) and the Tdp1 inhibitors (2 and 5 μM).
# HEK293A WT cells [3] = experiment: xCELLigence impedance-based real-time cell growth assay, alone or with Tpc; set-up: species or system human
# Experimental: as §1
# This stimulation was also confirmed for HEK293A WT cells using the xCELLigence DP Real-Time Cell Analyzer impedance-based assay (Figure 9). […] The stimulation effect depends on the concentration of compounds 11a and 11c (Figure 9B,C).
# (A). Cell growth of HEK293A cells in the control wells without compounds added (black), with 50 nM Tpc (red), 40 µM 11a (dark green), or 40 µ M 11c (violet). (B,C) Cell growth of HEK293A cells with 50 nM Tpc only (red) and in combination with 5 µM (green), 10 µM (dark blue), 20 µM (pink), or 40 µM (blue) 11a (B) or 11c (C).
# HEK293A TDP1-/- cells = experiment: Topotecan cytotoxicity alone or in combination, colorimetric test, HEK293A TDP1-/- clones C6, G6, F7; type: cell-based, human; conditions: HEK293A Tdp1-/- cells; combination with Tpc
# Description: TDP1 knockout HEK293A clones were obtained in the same way as the previously described TDP1 knockout HEK293FT clones. Briefly, two 20-nt protospacer sequences flanking the first protein coding exon of human TDP1 gene were selected using https://www.benchling.com/ (accessed date 1 November 2020). Oligonucleotides were cloned in plasmid pSpCas9(BB)-2A-GFP (PX458). pSpCas9(BB)-2A-GFP (PX458) was a gift from Feng Zhang (Addgene plasmid # 48138; http://n2t.net/addgene:48138; RRID: Addgene_48138). HEK293A cells were transfected with plasmids pX458-TDP1-gRNA1 and pX458-TDP1-gRNA2 (0.25 µg of each) using Lipofectamine 3000 Reagent (Thermofisher Scientific, Waltham, MA, USA). Growth medium contained DMEM/F12 (Thermofisher Scientific, Waltham, MA, USA) 1:1, 10% FBS (Thermofisher Scientific, Waltham, MA, USA), 100 U/mL penicillin–streptomycin (Thermofisher Scientific, Waltham, MA, USA), and 1 × GlutaMAX (Thermofisher Scientific, Waltham, MA, USA). […] Single cell clones grew for two weeks, and genome DNA was analyzed on CRISPR/Cas9-mediated deletions in TDP1 gene by PCR amplification of target region with primers: TDP1-scF 5′-[…]-3′ and TDP1-scR 5′-[…]-3′. […]
# Cytotoxicity of the compounds was examined against human cell lines HEK293A (human embryonic kidney)—WT and TDP1-deficient (Tdp1-/-), and HeLa (cervical cancer) using an EZ4U colorimetric tests (Biomedica, Vienna, Austria) or xCELLigence DP Real-Time Cell Analyzer (ACEA Biosciences, Santa Clara, CA, USA). […] After formation of a 30–50% monolayer, tested compounds were added to the medium, and the cell culture was monitored for 3 days. […]
# In our previous work, the cytotoxic effect of Tpc and the TDP1 inhibitors, monoterpene 3-carene derivatives, was established; both were measured separately and jointly using a panel of HEK293FT TDP1 knockout isogenic clones. […] No cleavage activity was detected in the clones’ C6, G6, and F7 cell extracts in contrast to control WT and purified TDP1. […]
# HEK293A WT cells [4] = experiment: Topotecan cytotoxicity in combination with TDP1 inhibitors, colorimetric test, HEK293A WT; type: cell-based, human
# Experimental: as §1
# There was no difference between WT and the mutant cells.
# [5] = as repeated in Table S1, read-out: IC50
# [6] = as repeated in Table S2, read-out: IC50
# [7] = as repeated in Table S3, read-out: IC50
# [8] = real-time fluorescent test, 1.5 nM TDP1, 50 nM substrate, 26 °C, read-out: IC50, TDP1 activity
Compound,IC50 (TDP1; [5]) [µM],IC50 (TDP1; [6]) [µM],IC50 (TDP1; [7]) [µM],"IC50, TDP1 activity (TDP1; real-time fluorescent test, 1.5 nM TDP1, 50 nM substrate, 26 °C)",IC50 (TDP1; [8]) [µM],intrinsic cytotoxicity (in words) (HEK293A cells),intrinsic cytotoxicity (in words) (HeLa cells [1]),effect on Tpc cytotoxicity (in words) (HeLa cells [2]),"effect on cell growth with Tpc, compared to Tpc (HEK293A WT cells [3]; 50 nM Tpc + 5, 10, 20 or 40 µM compound)",toxicity of compound alone (in words) (HEK293A WT cells [3]; 40 µM compound),"effect on cell growth in combination with Tpc, compared to Tpc (in words) (HEK293A TDP1-/- cells)","effect on Tpc cytotoxicity / cell growth, compared to Tpc (in words) (HEK293A WT cells [4])"
"C=C(C)[C@@H]1CC=C(CN/C(C)=C2\C(=O)C=C3Oc4c(C(C)=O)c(O)c(C)c(O)c4[C@@]3(C)C2=O)CC1 [11e, (2R,4E)-10-Acetyl-11,13-dihydroxy-2,12-dimethyl-4-[1-({[(4S)-4-(prop-1-en-2-yl)cyclohex-1-en-1-yl]methyl}amino)ethylidene]-8-oxatricyclo[7.4.0.0^2,7]trideca-1(13),6,9,11-tetraene-3,5-dione]",> 10,> 10,> 10,did not inhibit the enzyme,> 10,–,–,–,–,–,–,–
"CC(=O)c1c(O)c(C)c(O)c2c1OC1=CC(=O)/C(=C(/C)NC/C=C(\C)CCC=C(C)C)C(=O)[C@@]12C [11b, (2R,4E)-10-Acetyl-4-(1-{[(2E)-3,7-dimethylocta-2,6-dien-1-yl]amino}ethylidene)-11,13-dihydroxy-2,12-dimethyl-8-oxatricyclo[7.4.0.0^2,7]trideca-1(13),6,9,11-tetraene-3,5-dione]",0.32,–,–,–,–,completely suppressed cell growth at 100 μM,completely suppressed cell growth at 100 μM,–,–,–,–,–
"CC(=O)c1c(O)c(C)c(O)c2c1OC1=CC(=O)/C(=C(/C)NCC3=CC[C@H]4C[C@@H]3C4(C)C)C(=O)[C@@]12C [11d, (2R,4E)-10-Acetyl-4-[1-({[(1R,5S)-6,6-dimethylbicyclo[3.1.1]hept-2-en-2-yl]methyl}amino)ethylidene]-11,13-dihydroxy-2,12-dimethyl-8-oxatricyclo[7.4.0.0^2,7]trideca-1(13),6,9,11-tetraene-3,5-dione]",0.23,–,–,–,–,completely suppressed cell growth at 100 μM,completely suppressed cell growth at 100 μM,–,–,–,–,–
"CC(=O)c1c(O)c(C)c(O)c2c1OC1=CC(=O)/C(=C(/C)NCC[C@@H](C)CCC=C(C)C)C(=O)[C@@]12C [11a, (2R,4E)-10-Acetyl-4-(1-{[(3S)-3,7-dimethyloct-6-en-1-yl]amino}ethylidene)-11,13-dihydroxy-2,12-dimethyl-8-oxatricyclo[7.4.0.0^2,7]trideca-1(13),6,9,11-tetraene-3,5-dione]",0.4,–,–,–,–,non-cytotoxic,non-cytotoxic,enhanced topotecan’s cytotoxicity; also recorded: synergistic effect; also recorded: enhanced Tpc cytotoxicity,stimulated cell growth,modestly toxic,stimulation of cell growth,reduced it; also recorded: stimulation of cell growth; also recorded: stimulated cell growth

# Further lines, with some results ahead:
IC50 (TDP1; [5]) [µM],IC50 (TDP1; [6]) [µM],IC50 (TDP1; [7]) [µM],"IC50, TDP1 activity (TDP1; real-time fluorescent test, 1.5 nM TDP1, 50 nM substrate, 26 °C)",IC50 (TDP1; [8]) [µM],Compound,intrinsic cytotoxicity (in words) (HEK293A cells),intrinsic cytotoxicity (in words) (HeLa cells [1]),effect on Tpc cytotoxicity (in words) (HeLa cells [2]),"effect on cell growth with Tpc, compared to Tpc (HEK293A WT cells [3]; 50 nM Tpc + 5, 10, 20 or 40 µM compound)",toxicity of compound alone (in words) (HEK293A WT cells [3]; 40 µM compound),"effect on cell growth in combination with Tpc, compared to Tpc (in words) (HEK293A TDP1-/- cells)","effect on Tpc cytotoxicity / cell growth, compared to Tpc (in words) (HEK293A WT cells [4])"
> 10,> 10,> 10,–,> 10,"CC(=O)c1c(O)c(C)c(O)c2c1OC1=CC(=O)/C(=C(/C)NCCCC(=O)OCC[C@H](C)CCC=C(C)C)C(=O)[C@@]12C [13a, (3R)-3,7-Dimethyloct-6-en-1-yl 4-({1-[(2R,4E)-10-acetyl-11,13-dihydroxy-2,12-dimethyl-3,5-dioxo-8-oxatricyclo[7.4.0.0^2,7]trideca-1(13),6,9,11-tetraen-4-ylidene]ethyl}amino)butanoate]",–,–,–,–,–,–,–
> 10,> 10,> 10,–,> 10,"CC(=O)c1c(O)c(C)c(O)c2c1OC1=CC(=O)/C(=C(/C)NCCCC(=O)OC/C=C(\C)CCC=C(C)C)C(=O)[C@@]12C [13b, (2E)-3,7-Dimethylocta-2,6-dien-1-yl 4-({1-[(2R,4E)-10-acetyl-11,13-dihydroxy-2,12-dimethyl-3,5-dioxo-8-oxatricyclo[7.4.0.0^2,7]trideca-1(13),6,9,11-tetraen-4-ylidene]ethyl}amino)butanoate]",–,–,–,–,–,–,–
> 10,> 10,> 10,–,> 10,"CC(=O)c1c(O)c(C)c(O)c2c1OC1=CC(=O)/C(=C(/C)NCCCC(=O)OCCC3=CC[C@H]4C[C@@H]3C4(C)C)C(=O)[C@@]12C [13c, 2-[(1R,5S)-6,6-Dimethylbicyclo[3.1.1]hept-2-en-2-yl]ethyl 4-({1-[(2R,4E)-10-acetyl-11,13-dihydroxy-2,12-dimethyl-3,5-dioxo-8-oxatricyclo[7.4.0.0^2,7]trideca-1(13),6,9,11-tetraen-4-ylidene]ethyl}amino)butanoate]",–,–,–,–,–,–,–
> 10,> 10,> 10,–,> 10,"C=C(C)[C@@H]1CC=C(COC(=O)CCCN/C(C)=C2\C(=O)C=C3Oc4c(C(C)=O)c(O)c(C)c(O)c4[C@@]3(C)C2=O)CC1 [13e, [(4S)-4-(Prop-1-en-2-yl)cyclohex-1-en-1-yl]methyl 4-({1-[(2R,4E)-10-acetyl-11,13-dihydroxy-2,12-dimethyl-3,5-dioxo-8-oxatricyclo[7.4.0.0^2,7]trideca-1(13),6,9,11-tetraen-4-ylidene]ethyl}amino)butanoate]",–,–,–,–,–,–,–
> 10,> 10,> 10,–,> 10,"CC(=O)c1c(O)c(C)c(O)c2c1OC1=CC(=O)/C(=C(/C)NCCCC(=O)OCC3=CC[C@H]4C[C@@H]3C4(C)C)C(=O)[C@@]12C [13d, [(1R,5S)-6,6-Dimethylbicyclo[3.1.1]hept-2-en-2-yl]methyl 4-({1-[(2R,4E)-10-acetyl-11,13-dihydroxy-2,12-dimethyl-3,5-dioxo-8-oxatricyclo[7.4.0.0^2,7]trideca-1(13),6,9,11-tetraen-4-ylidene]ethyl}amino)butanoate]",–,–,–,–,–,–,–
